Test [1] concerns the target T1, Beta-galactosidase (Bos taurus, UniProt Q58D55).
T1 sequence (Q58D55 whole entry): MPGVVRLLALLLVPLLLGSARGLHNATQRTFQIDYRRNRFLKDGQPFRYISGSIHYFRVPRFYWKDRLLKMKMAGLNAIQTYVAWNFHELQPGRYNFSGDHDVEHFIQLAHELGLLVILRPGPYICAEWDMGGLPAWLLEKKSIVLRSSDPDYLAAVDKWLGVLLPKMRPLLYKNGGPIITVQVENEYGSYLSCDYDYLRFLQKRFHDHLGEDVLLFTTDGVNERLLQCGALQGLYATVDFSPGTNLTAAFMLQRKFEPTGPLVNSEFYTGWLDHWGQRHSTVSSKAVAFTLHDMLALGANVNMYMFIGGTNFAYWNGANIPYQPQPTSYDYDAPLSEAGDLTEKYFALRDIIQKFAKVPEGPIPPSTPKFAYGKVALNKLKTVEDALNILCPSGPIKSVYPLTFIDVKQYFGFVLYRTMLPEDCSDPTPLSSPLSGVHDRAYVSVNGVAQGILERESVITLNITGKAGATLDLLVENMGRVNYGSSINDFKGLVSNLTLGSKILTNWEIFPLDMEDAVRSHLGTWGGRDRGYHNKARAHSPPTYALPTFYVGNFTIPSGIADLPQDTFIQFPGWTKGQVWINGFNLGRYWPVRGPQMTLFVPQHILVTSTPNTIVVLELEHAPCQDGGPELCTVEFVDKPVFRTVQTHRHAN
Description: Inhibition of bovine liver beta-galactosidase by spectrometry.

Test [2] can be described thus: (§1) Inhibition of almonds beta-glucosidase by spectrometry. Details: species or system Prunus dulcis.
Another test addresses Alpha-galactosidase (Coffea arabica, UniProt Q42656). Description: Inhibition of green coffee beans alpha-galactosidase by spectrometry.
The next test deals with Helix pomatia. Description: Inhibition of helix pomatia beta-mannosidase by spectrometry.
For another test, the species on record is Homo sapiens. Description: Inhibition of human placental alpha-fucosidase by spectrometry.
In test [3] the target is T2, Beta-galactosidase (Aspergillus oryzae, UniProt Q2U7N3).
T2 sequence (Q2U7N3 whole entry): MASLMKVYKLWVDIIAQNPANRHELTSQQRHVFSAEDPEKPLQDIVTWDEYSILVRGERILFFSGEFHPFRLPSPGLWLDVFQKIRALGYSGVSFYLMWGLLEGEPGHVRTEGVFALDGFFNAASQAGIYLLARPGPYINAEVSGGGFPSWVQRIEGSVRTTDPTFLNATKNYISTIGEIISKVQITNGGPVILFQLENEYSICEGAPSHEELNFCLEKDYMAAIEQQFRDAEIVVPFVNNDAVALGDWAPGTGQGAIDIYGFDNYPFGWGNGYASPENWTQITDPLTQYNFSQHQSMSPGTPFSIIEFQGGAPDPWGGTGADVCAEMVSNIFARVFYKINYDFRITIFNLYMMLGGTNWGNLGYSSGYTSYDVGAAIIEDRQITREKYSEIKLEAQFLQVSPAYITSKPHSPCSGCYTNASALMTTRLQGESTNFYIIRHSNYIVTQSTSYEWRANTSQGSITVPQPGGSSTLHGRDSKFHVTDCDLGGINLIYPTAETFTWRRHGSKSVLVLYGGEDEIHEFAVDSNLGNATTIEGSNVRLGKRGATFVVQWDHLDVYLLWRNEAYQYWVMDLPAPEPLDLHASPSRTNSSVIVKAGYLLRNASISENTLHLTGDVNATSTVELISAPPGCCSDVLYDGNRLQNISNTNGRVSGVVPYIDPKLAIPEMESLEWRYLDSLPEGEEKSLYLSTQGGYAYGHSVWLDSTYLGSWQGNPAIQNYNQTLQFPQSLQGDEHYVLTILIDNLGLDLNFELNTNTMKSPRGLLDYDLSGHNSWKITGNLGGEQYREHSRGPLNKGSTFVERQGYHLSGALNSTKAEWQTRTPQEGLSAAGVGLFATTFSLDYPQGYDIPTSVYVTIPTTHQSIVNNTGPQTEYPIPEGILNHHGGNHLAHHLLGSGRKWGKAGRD
In words: Inhibition of Aspergillus oryzae beta-galactosidase by spectrometry.

A further test relates to Prunus dulcis. The test is described as §1.
A further test has as its system Canavalia ensiformis. In words: Inhibition of jack beans alpha-mannosidase by spectrometry.

pIC50: −log10 of the molar value. Calls of active or inactive are those of the source. The rule behind the calls is not given here. A value given as a limit tells only on which side of the number the result lay.

Two compounds from ChEMBL document CHEMBL1921711, “Transformation of quercitols into 4-methylenecyclohex-5-ene-1,2,3-triol derivatives, precursors for the chemical chaperones N-octyl-4-epi-β-valienamine (NOEV) and N-octyl-β-valienamine (NOV)” (Bioorg Med Chem Lett, 2011) can be followed below.

Chain of Alpha-galactosidase (Q42656 whole entry): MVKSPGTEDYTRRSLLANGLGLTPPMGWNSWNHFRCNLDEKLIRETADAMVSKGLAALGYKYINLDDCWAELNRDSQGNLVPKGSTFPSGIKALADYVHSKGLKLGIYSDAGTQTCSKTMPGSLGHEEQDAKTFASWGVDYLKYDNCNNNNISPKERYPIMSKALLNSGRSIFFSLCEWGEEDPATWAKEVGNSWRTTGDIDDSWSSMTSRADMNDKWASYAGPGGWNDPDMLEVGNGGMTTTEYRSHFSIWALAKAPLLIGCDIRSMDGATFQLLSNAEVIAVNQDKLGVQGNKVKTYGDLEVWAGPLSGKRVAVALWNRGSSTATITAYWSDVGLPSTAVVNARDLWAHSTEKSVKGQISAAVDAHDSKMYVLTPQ

One may read the pIC50 as the negative decadic logarithm of the IC50, by convention in mol/L. Low values mean a high IC50, high ones a low IC50. Consider `CCCCCCCCN[C@@H]1C=C(CO)[C@@H](O)[C@H](O)[C@H]1O`, for which the negative logarithm of the IC50 (pIC50) is 5.54 against Beta-galactosidase [1], 4.33 in test [2] and less than 3.00 on Alpha-galactosidase.

Take `CCCCCCCCN[C@@H]1C=C(CO)[C@H](O)[C@H](O)[C@H]1O`: the inhibition result in the test with Helix pomatia, in the test listed under Homo sapiens and with Canavalia ensiformis was “inactive” in each case. Moreover, the pIC50 on Beta-galactosidase [1] is 5.35; against Beta-galactosidase [3] it was 4.07; in test [2], 5.09; at Alpha-galactosidase, 5.35. Further, in the test with Prunus dulcis, the inhibition result was “Active”.
